This note sets out measurements from PubChem BioAssay (NCI).

Test systems include RPMI-8226 leukemia; HT29 colon; SN12C renal; SK-MEL-28 melanoma; HCT-116 colon; SNB-19 CNS; OVCAR-8 ovarian; UACC-62 melanoma; TK-10 renal; IGROV1 ovarian.
What all share (assay): growth of human tumour cells (NCI), 48 h

SMILES strings stand for the structures.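 Cultured in 96-well plates, cells were exposed to test compound for 48 hours across five concentrations. The concentration for 50% growth inhibition is given as GI50. TGI is the concentration that stops growth completely.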

Take `Clc1ccc2nc(Oc3ccccc3)cnc2c1`: the GI50 in the test with RPMI-8226 leukemia, in the test on HT29 colon, with SN12C renal, in the test on SK-MEL-28 melanoma, in the test on HCT-116 colon and with SNB-19 CNS was over 100 µM throughout. Moreover, the GI50 with OVCAR-8 ovarian, in the test with UACC-62 melanoma and in the test on TK-10 renal was over 100 µM throughout. Also, the TGI in the test with RPMI-8226 leukemia, with HT29 colon, with SN12C renal, in the test on SK-MEL-28 melanoma, in the test on HCT-116 colon and with SNB-19 CNS was over 100 µM each time. In addition, the TGI in the test on OVCAR-8 ovarian, in the test on UACC-62 melanoma and in the test on TK-10 renal was over 100 µM throughout.
Take `FC(F)(F)c1ccc2nc(Nc3ccc(Cl)c(Cl)c3)c(-c3ccccc3)nc2c1`: the TGI in the test with RPMI-8226 leukemia, in the test on HT29 colon, with SN12C renal, with SK-MEL-28 melanoma, with HCT-116 colon and in the test with SNB-19 CNS was over 100 µM throughout. Also, the TGI in the test with OVCAR-8 ovarian and with TK-10 renal was over 100 µM in each case.
`C=C(C)[C@@H]1CC[C@@]2(C)[C@H]1[C@H]1CCC3[C@@]4(C)CC[C@H](O)C(C)(C)[C@@H]4CC[C@@]3(C)[C@]1(C)C[C@@H]2O` (stereo not given in full): the TGI with IGROV1 ovarian, in the test with HT29 colon, with SN12C renal, in the test with SK-MEL-28 melanoma, in the test on HCT-116 colon and in the test with SNB-19 CNS was over 100 µM in each case. For the same compound, the TGI in the test on OVCAR-8 ovarian and in the test with TK-10 renal was over 100 µM each time.
As for `C[C@H](CSC(=O)c1ccccc1)C(=O)N1c2ccccc2C[C@H]1C(=O)O`, the TGI with IGROV1 ovarian, with HT29 colon, in the test with SN12C renal, in the test with SK-MEL-28 melanoma, in the test with HCT-116 colon and in the test with SNB-19 CNS was over 100 µM each time. For the same compound, the TGI in the test with OVCAR-8 ovarian, in the test on UACC-62 melanoma and in the test with TK-10 renal was over 100 µM each time.
For the compound `O=[N+]([O-])c1nccn1CC1OC(n2ccnc2[N+](=O)[O-])C(O)C(O)C1O` (stereo not given), the TGI with RPMI-8226 leukemia, with HT29 colon, in the test with SK-MEL-28 melanoma, in the test with HCT-116 colon, in the test with SNB-19 CNS and in the test with OVCAR-8 ovarian was over 100 µM throughout. For the same compound, the TGI in the test with UACC-62 melanoma and in the test with TK-10 renal was over 100 µM each time.
Take `COc1cc(Oc2c(O)c(C)c(OC)c(C(C)=O)c2O)c(C(C)=O)c(O)c1C`: the TGI in the test with IGROV1 ovarian, in the test on HT29 colon, in the test on SN12C renal, with SK-MEL-28 melanoma, with HCT-116 colon and with SNB-19 CNS was over 100 µM each time. Besides, the results for the TGI in the test on OVCAR-8 ovarian, in the test with UACC-62 melanoma and in the test on TK-10 renal were over 100 µM, over 100 µM and 86.7 µM, respectively.
Take `O=C1c2ccccc2C(=O)C1C(c1ccc([N+](=O)[O-])cc1)C1C(=O)c2ccccc2C1=O`: the TGI in the test on RPMI-8226 leukemia was over 100 µM; in the test on HT29 colon, over 100 µM; in the test on SN12C renal it was over 100 µM; in the test on SK-MEL-28 melanoma, 93.6 µM; with HCT-116 colon it was 49.3 µM; in the test with SNB-19 CNS, over 100 µM. In addition, the TGI with OVCAR-8 ovarian is 72.8 µM; in the test on UACC-62 melanoma, over 100 µM; in the test on TK-10 renal it was over 100 µM.
`S=c1ssc(Sc2ccccn2)c1Cl`: the GI50 in the test with RPMI-8226 leukemia is 1.56 µM; in the test on HT29 colon it was 3.43 µM; in the test with SN12C renal, 13.2 µM; in the test with SNB-19 CNS it was 17 µM; with OVCAR-8 ovarian, 20.3 µM; in the test with UACC-62 melanoma, 15.3 µM. In addition, the GI50 in the test on TK-10 renal is 2.11 µM. In addition, the TGI with RPMI-8226 leukemia was 4.14 µM; in the test with HT29 colon, over 100 µM; in the test on SN12C renal, 25.9 µM; with SNB-19 CNS, 41 µM; with OVCAR-8 ovarian, 40.8 µM; with UACC-62 melanoma, 28.6 µM. This compound also yielded a TGI in the test on TK-10 renal of 8.57 µM.
As for `C/C=C(/CCCCNCCCC)[Si](C)(C)C`, the TGI worked out at 37 µM in the test with IGROV1 ovarian; 14.7 µM with HT29 colon; 30.5 µM in the test with SN12C renal; 29.4 µM in the test on SK-MEL-28 melanoma; 26.6 µM in the test on HCT-116 colon; 31.8 µM in the test with SNB-19 CNS. Besides, the TGI turned out to be 31.8 µM in the test with OVCAR-8 ovarian, 32.7 µM in the test with UACC-62 melanoma and 28.6 µM in the test with TK-10 renal.
Consider `O=C(Cc1ccccc1)N/N=C(\C1=Nc2ccc([N+](=O)[O-])cc2NC1O)C(O)c1ccc([N+](=O)[O-])cc1` (stereo not given), for which the TGI in the test on IGROV1 ovarian, in the test with RPMI-8226 leukemia, in the test with HT29 colon, in the test with SN12C renal, in the test with HCT-116 colon and with SNB-19 CNS was over 100 µM each time. The TGI in the test with OVCAR-8 ovarian, in the test on UACC-62 melanoma and with TK-10 renal was over 100 µM each time.
For the compound `Cc1cn2c(/C=N/N/C(N)=N\N)c(-c3ccc(Cl)c([N+](=O)[O-])c3)nc2s1`, the GI50 with IGROV1 ovarian was 3.55 µM; in the test on RPMI-8226 leukemia, 4.54 µM; in the test on SN12C renal, 1.27 µM; with SNB-19 CNS, 2.05 µM; in the test on UACC-62 melanoma it was 0.883 µM; in the test with TK-10 renal, 5.82 µM. The TGI with IGROV1 ovarian was 37.8 µM; in the test on RPMI-8226 leukemia, over 50 µM; in the test with SN12C renal it was 4.09 µM; with SNB-19 CNS, 18.6 µM; in the test on UACC-62 melanoma it was 1.67 µM; with TK-10 renal it was 30.7 µM.
As to `COC(=O)[C@]1(C)CCC[C@@]2(C)C1CCC1=C[C@@]3(C(C)C)CC[C@]12OO3` (stereo not given in full), the TGI is over 100 µM in the test with IGROV1 ovarian; 47 µM in the test with RPMI-8226 leukemia; 29.5 µM in the test with HT29 colon; over 100 µM with SN12C renal; 73 µM with HCT-116 colon; over 100 µM in the test with SNB-19 CNS. For the same compound, the TGI is over 100 µM in the test with OVCAR-8 ovarian, 72.3 µM with UACC-62 melanoma and over 100 µM with TK-10 renal.
Consider `Cc1cccc(C)c1NC(=O)CCCC(=O)C1CCC/C1=N\NC(=O)C(=O)NN` (stereo not given), for which the TGI with RPMI-8226 leukemia, in the test with HT29 colon, in the test on SN12C renal, in the test on SK-MEL-28 melanoma, in the test with HCT-116 colon and in the test on SNB-19 CNS was over 100 µM throughout. Further, the TGI in the test with OVCAR-8 ovarian and in the test with TK-10 renal was over 100 µM in each case.
